Measured values: paper PMC8752738, “A propolis-derived small molecule ameliorates metabolic syndrome in obese mice by targeting the CREB/CRTC2 transcriptional complex” (Nature Communications, 2022)
Values joined by “and” are separate entries in the source; they are usually repeats but may differ in a detail not shown here. Identical values can stand only once.

System: tissue mRNA levels
Assay: Quantitative PCR of tissue gene expression in treated mice
Type: in vivo, mouse
Design: key to mRNA levels Scap / mRNA levels Insig1 / mRNA levels Ldlr / mRNA levels Mttp / mRNA levels Atgl / mRNA levels Tnfaip2 / mRNA levels Rxra / mRNA levels Srebf1 / mRNA levels Ucp2: mRNA level normalized to ribosomal L32 mRNA (internal control)
Conditions: for Lxra mRNA level: Figure 7g right, APC-20, single animals
Method: Total RNA from cells and tissues was extracted by Trizol (Invitrogen) and reverse-transcribed into cDNA using the prime script RT reagent kit with gDNA eraser (Takara). The mRNA levels were determined using the SYBR-green PCR kit (Takara) with ABIPRISM 7900HT Sequence detector (ABI) according to the manufacturer’s protocol. The quantitative qPCR primers used in this work are listed in Supplementary Table 1. Ribosomal L32 mRNA levels were used as an internal control.

[1] = Figure 6f, CRTC2KO mice, oral APC, individual mice
[2] = Figure 6f, WT mice, oral APC, group mean, N 6
[3] = Figure 6f, WT mice, oral APC, individual mice
[4] = Figure 8b, group mean, VEH mean 1.017
[5] = Figure 8b, individual mice, relative to CT
[6] = Figure 6d, white fat (WF) tissue of DIO mice, individual animals

## CC(C)=CCc1cc(C=CC(=O)O)cc(CC=C(C)C)c1O [APC, 3,5-diprenyl-4-hydroxycinnamic acid]
[1]
  mRNA of Srebf-1c: 0.7027 and 0.8687 and 0.636 and 0.7129 and 0.563 and 0.649
  mRNA of Srebf-2: 0.9632 and 0.7439 and 0.6331 and 0.8903 and 0.6443 and 0.8216
Figure 6f, WT mice, oral APC
  mRNA of Srebf-1c, Mean Diff. APC - VEH: -0.3789
  mRNA of Srebf-2, Mean Diff. APC - VEH: -0.3018
[2]
  mRNA of Srebf-1c, Mean 1 (APC): 0.629
  mRNA of Srebf-2, Mean 1 (APC): 0.7556
[3]
  mRNA of Srebf-1c: 0.563 and 0.9627 and 0.5968 and 0.3599 and 0.5266 and 0.7651
  mRNA of Srebf-2: 0.6655 and 0.7786 and 0.6178 and 0.7571 and 0.8561 and 0.8585
Crtc2KO mice
  Lxra mRNA level: 1.153 and 0.7926 and 0.8176 and 0.4111 and 0.7938
WT mice
  Lxra mRNA level: 0.6135 and 0.274 and 0.3613 and 0.5157 and 0.4764
Figure 8b, group mean, VEH mean 1.004
  mRNA levels G6Pase, Mean of APC: 0.5682
[4]
  mRNA levels Pck1, Mean of APC: 0.584
  mRNA levels Pgc-1a, Mean of APC: 0.499
[5]
  mRNA levels G6Pase: 0.4956 and 0.4542 and 0.8275 and 0.9159 and 0.3526 and 0.3635
  mRNA levels Pck1: 0.4515 and 0.4432 and 0.8122 and 0.7784 and 0.5234 and 0.4955
  mRNA levels Pgc-1a: 0.6618 and 0.6014 and 0.6454 and 0.5396 and 0.2614 and 0.2843
Figure 6d, white fat (WF) tissue of DIO mice, group mean, Mean of VEH 0.9173
  mRNA levels ApoB, Mean of APC: 0.3598
Figure 6d, white fat (WF) tissue of DIO mice, group mean, Mean of VEH 0.9567
  mRNA levels Srebf-1c, Mean of APC: 0.3721
Figure 6d, white fat (WF) tissue of DIO mice, group mean, Mean of VEH 0.9649
  mRNA levels Acsl1, Mean of APC: 0.4379
Figure 6d, white fat (WF) tissue of DIO mice, group mean, Mean of VEH 0.976
  mRNA levels Lxra, Mean of APC: 0.6757
Figure 6d, white fat (WF) tissue of DIO mice, group mean, Mean of VEH 0.9829
  mRNA levels Cebpa, Mean of APC: 1.129
Figure 6d, white fat (WF) tissue of DIO mice, group mean, Mean of VEH 0.9868
  mRNA levels Creb, Mean of APC: 1.007
Figure 6d, white fat (WF) tissue of DIO mice, group mean, Mean of VEH 0.9898
  mRNA levels Cpt1, Mean of APC: 1.536
Figure 6d, white fat (WF) tissue of DIO mice, group mean, Mean of VEH 0.9976
  mRNA levels Pparγ, Mean of APC: 0.9616
Figure 6d, white fat (WF) tissue of DIO mice, group mean, Mean of VEH 1.005
  mRNA levels Tnfaip2, Mean of APC: 0.9923
Figure 6d, white fat (WF) tissue of DIO mice, group mean, Mean of VEH 1.009
  mRNA levels Pgc-1a, Mean of APC: 0.704
Figure 6d, white fat (WF) tissue of DIO mice, group mean, Mean of VEH 1.017
  mRNA levels Srebf-2, Mean of APC: 0.6488
Figure 6d, white fat (WF) tissue of DIO mice, group mean, Mean of VEH 1.018
  mRNA levels Acc, Mean of APC: 0.5342
Figure 6d, white fat (WF) tissue of DIO mice, group mean, Mean of VEH 1.022
  mRNA levels Scd1, Mean of APC: 0.5423
Figure 6d, white fat (WF) tissue of DIO mice, group mean, Mean of VEH 1.036
  mRNA levels Fasn, Mean of APC: 0.5535
Figure 6d, white fat (WF) tissue of DIO mice, group mean, Mean of VEH 1.041
  mRNA levels Mgll, Mean of APC: 0.6295
Figure 6d, white fat (WF) tissue of DIO mice, group mean, Mean of VEH 1.044
  mRNA levels Retn, Mean of APC: 0.3139
Figure 6d, white fat (WF) tissue of DIO mice, group mean, Mean of VEH 1.054
  mRNA levels Glut4, Mean of APC: 0.2982
Figure 6d, white fat (WF) tissue of DIO mice, group mean, Mean of VEH 1.057
  mRNA levels Atgl, Mean of APC: 1.332
Figure 6d, white fat (WF) tissue of DIO mice, group mean, Mean of VEH 1.069
  mRNA levels Hsl, Mean of APC: 1.68
Figure 6d, white fat (WF) tissue of DIO mice, group mean, Mean of VEH 1.114
  mRNA levels Lpl, Mean of APC: 0.6106
Figure 6d, white fat (WF) tissue of DIO mice, group mean, Mean of VEH 1.126
  mRNA levels Pgc-1b, Mean of APC: 0.666
[6]
  mRNA levels Acc: 0.5239 and 0.3917 and 0.6963 and 0.6783 and 0.5952 and 0.3196
  mRNA levels Acsl1: 0.4459 and 0.1537 and 0.5539 and 0.2927 and 0.6116 and 0.5696
  mRNA levels ApoB: 0.3337 and 0.2599 and 0.6345 and 0.1702 and 0.408 and 0.3527
  mRNA levels Atgl: 1.322 and 1.233 and 1.718 and 1.2249 and 1.301 and 1.192
  mRNA levels Cebpa: 1.279 and 0.9809 and 1.111 and 1.353 and 1.154 and 0.8979
  mRNA levels Cpt1: 1.627 and 1.184 and 1.402 and 2.24 and 1.4196 and 1.345
  mRNA levels Creb: 1.411 and 1.393 and 1.026 and 0.3555 and 0.9743 and 0.8802
  mRNA levels Fasn: 0.5104 and 0.4062 and 0.9888 and 0.3127 and 0.6571 and 0.4456
  mRNA levels Glut4: 0.4697 and 0.1331 and 0.1991 and 0.1942 and 0.3683 and 0.4245
  mRNA levels Hsl: 2.303 and 1.694 and 1.5898 and 1.21 and 1.869 and 1.4146
  mRNA levels Lpl: 0.6557 and 0.743 and 0.6544 and 0.3781 and 0.733 and 0.4994
  mRNA levels Lxra: 0.7883 and 0.7167 and 0.4804 and 0.6732 and 0.7502 and 0.6457
  mRNA levels Mgll: 0.5524 and 0.27 and 0.8642 and 0.6156 and 0.9323 and 0.5423
  mRNA levels Pgc-1a: 0.5315 and 0.7402 and 0.6723 and 0.7798 and 0.8847 and 0.6158
  mRNA levels Pgc-1b: 0.683 and 0.7869 and 0.6257 and 0.4165 and 0.7943 and 0.6894
  mRNA levels Ppargamma: 1.1637 and 0.8189 and 1.303 and 0.8539 and 0.722 and 0.9079
